Experimental data taken from patent publication US7592188B2, “Live cell biosensors” (The Scripps Research Institute, priority 2004, dated 2009).

Legend:
Cdc42 activation = experiment: Peripheral Cdc42 activation in cells treated with cytoskeletal agents; type: cell-based
Source text: Microtubules or actin may direct Cdc42 activation to specific peripheral locations. This possibility was explored by treating cells with the microtubule-depolymerizing agents nocodazole and colchicine, or with cytochalasin D, an inhibitor of actin polymerization. […] Microtubules may therefore localize interactions between Cdc42 and guanine nucleotide exchange factors by directing vesicle trafficking or regulating events at adhesion complexes.

[1] = Dye photo-bleaching under tungsten lamp irradiation; type: physicochemical
Procedure: Photo-bleaching. All samples contained 1 mM dye in a final volume of 10 mL. For nitrogen and oxygen saturation the samples were bubbled with solvent-saturated gas for 30 min. A 90 W halogen tungsten lamp was employed for irradiation, with a fan used for cooling. The temperature of samples was 25±1° C. during reactions. The absorption spectrum of each sample was measured before irradiation and after every 10 h period. For the trapping experiment thioanisole (1.0 M) was added to oxygen-saturated butanol solution of dye 1b. After 60 h of irradiation the reaction mixture was analyzed by GC-MS for products formed. The products, methylphenylsulfoxide and methylphenyl sulfone, were identified by comparison with authentic samples.
Dyes used in living cells must be photostable to provide many sequential images and to obtain sufficient light from minimal amounts of exogenous labeled material. The photostability of the new dyes was characterized by exposing them to constant illumination from a tungsten lamp filtered through glass, a broad spectrum light source that provided essentially equal intensity throughout the spectral range where the dyes would be irradiated in vivo. A fan was used to prevent heating, and dye solutions were adjusted for equal maximal absorbance, kept below 1 μM to minimize the inner filter effect. […] Photo-bleaching followed first-order kinetics in all cases.

Cdc42 = target: T1, Cdc42 (Homo sapiens, UniProt P60953); experiment: Analysis of Cdc42 activation: fluorescence of dye-labeled WASP fragment; type: binding
T1 construct: 6His; made in house; host or cells: E. coli BL21DE3, only by the words 'analogous procedures' to the CBD preparation
T1 sequence (P60953 whole entry, species assumed, the tested form may be a part): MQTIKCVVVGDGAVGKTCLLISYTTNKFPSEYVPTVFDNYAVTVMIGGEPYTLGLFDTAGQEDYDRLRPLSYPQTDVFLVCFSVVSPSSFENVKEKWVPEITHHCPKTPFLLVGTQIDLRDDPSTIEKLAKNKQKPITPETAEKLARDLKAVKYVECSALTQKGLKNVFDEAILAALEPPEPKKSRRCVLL
Procedure: Analysis of Cdc42 Activation. A solution of the WASP conjugate (300 nM) in a assay buffer (50 mM Tris-HCl, pH 7.6, 50 mM NaCl, 5 mM MgCl2, 1 mM DTT) was mixed 1:1 (v/v) with solutions of Cdc42, pre-equilibrated with 10 mM GDP or GTPγS as described below. Emission at 630 nm and excitation at 600 nm were used to acquire excitation and emission spectra, respectively. For nucleotide dependence, Cdc42 (500 nM) was preincubated with varying concentrations of GTPγS (1-500 nM).

Erk2 = experiment: Fluorescence response of dye-labeled Erk2 to phosphorylation; type: biochemical
Source text: This Example illustrates that the dyes of the invention can be attached directly to a protein of interest (e.g. Erk), where the dyes respond to conformational changes and phosphorylation. In particular, the I-TBA-3CNPh dye was attached to cysteine 214 of the MAP kinase Erk2, where it responded to Erk phosphorylation. A structure for the I-TBA-3CNPh dye is provided below.
This model was based on tryptic digestion combined with mass spectroscopic sequencing of the labeled protein, and on docking studies. The lighter (yellow) residues represent two lysines undergoing hydrogen bonding with the dye, and a tryptophan interacting through π-π stacking. Phosphorylation of the purple residues altered the conformation of the protein, affecting the tryptophan interaction and perturbing some of the hydrogen bonds.

[2] = Water solubility and aggregation of dyes in water (absorbance spectra)
Source text: Labeling was accomplished only by including greater than 5% DMSO as cosolvent.

[3] = Quantum yield of triplet state formation; type: physicochemical; details: in ethanol
[4] = Photophysical properties of dyes in various solvents (absorbance, emission, quantum yield); type: physicochemical; set-up: ε × F / ε × Φ: unit not given here
Procedure: Analytical grade reagents were purchased from major suppliers. […] Emission and excitation spectra were obtained using a Spex Fluorolog 2 spectrofluorometer at 23° C. […] Demas et al., J. Phys. […] All operations with dyes were performed under dim light. Flasks containing dyes were wrapped with aluminum foil.

With COc1cc2c(c(OC)c1OC)-c1ccc(OC)c(=O)cc1[C@@H](NC(C)=O)CC2 [colchicine] the “effect on peripheral Cdc42 activation” value (Cdc42 activation) was “markedly affected peripheral Cdc42 activation”.

In the case of C=C1[C@@H](C)[C@H]2[C@H](Cc3ccccc3)NC(=O)[C@]23[C@H](OC(C)=O)/C=C/[C@@](C)(O)C(=O)[C@@H](C)C/C=C/[C@H]3[C@@H]1O [cytochalasin D], the “effect on peripheral Cdc42 activation” value (Cdc42 activation) is reported as “Only nocodazole and colchicine markedly affected peripheral Cdc42 activation”.

In the case of CCN1/C(=C/C=C/C=C/C2=[N+](CCCCCC(=O)O)c3ccc(S(=O)(=O)O)cc3C2(C)C)C(C)(C)c2cc(S(=O)(=O)[O-])ccc21 [Cy5, reference compound], the “Absolute rate constant of dye photo-bleaching, kph × 10^6” value (“Absolute rate constant” for short) ([1]; BuOH) is reported as 0.77 s^−1, the “Absolute rate constant” value ([1]; MeOH) is reported as 1.0 s^−1 and the “change in fluorescence intensity of cyanine-labeled WASP fragment” value (Cdc42; control experiments, WASP fragment labeled with Cy3 or Cy5) is reported as “no change in fluorescence intensity was observed”.

With “labeled Erk2 protein: MAP kinase Erk2 with I-TBA-3CNPh dye attached to cysteine 214” the “phosphorylation activity of labeled Erk2” value (Erk2; Western blots, substrate Elk) was “retains phosphorylation activity”.

In the case of “Sodium 3-{(2Z)-5-2-[(2E,4Z)-4-(1,1-Dioxido-3-oxo-1-benzothien-2(3H)-ylidene)but-2-enylidene]-3,3-dimethyl-2,3-dihydro-1H-indol-1-yl}propane-1-sulfonate [dye 4b]”, the “concentration at which dye did not aggregate” value ([2]; in water, absorbance spectrum) is reported as “greater than 250 μM”.

With CC1(C)/C(=C\C=C\C=C2C(=O)N(Cc3cccc(C#N)c3)C(=S)N(Cc3cccc(C#N)c3)C2=O)N(CCCNC(=O)CI)c2ccc(S(=O)(=O)O)cc21 [I-TBA-3CNPh] the “fluorescence change of dye-labeled Erk2” value (Erk2; incubation with MEK kinase and ATP) was “phosphorylation-induced increase in fluorescence”.

In the case of CN1C(=O)C(=C/C=C/C=C2\N(C)c3ccccc3C2(C)C)C(=O)N(C)C1=S [dye 3a, 1,3-Dimethyl-2-thioxo-5-[(2E,4Z)-4-(1,3,3-trimethyl-1,3-dihydro-2H-indol-2-ylidene)but-2-enylidene]dihydropyrimidine-4,6(1H,5,H)-dione], the “Absolute rate constant” value ([1]; BuOH) is reported as 0.78 s^−1, the “Absolute rate constant” value ([1]; MeOH) is reported as 0.18 s^−1 and the “ΦT, quantum yield of triplet state formation” value [3] is reported as 0.003. The “Abs. λmax” value ([4]; solvent BuOH) was 589 nm, the “Emission λmax” value ([4]; solvent BuOH) was 609 nm and the “Φ (quantum yield of fluorescence)” value ([4]; solvent BuOH) was 0.61. The “ε (molar extinction coefficient)” value ([4]; solvent BuOH) was “(190000)”, the “ε × F” value ([4]; solvent BuOH) was 116000 and the “Abs. λmax” value ([4]; solvent C6H6) was 584 nm. For the same molecule, the “Emission λmax” value ([4]; solvent C6H6) was 605 nm, the “Φ (quantum yield of fluorescence)” value ([4]; solvent C6H6) was 0.20 and the “ε (molar extinction coefficient)” value ([4]; solvent C6H6) was “(127000)”. For the same molecule, the “ε × F” value ([4]; solvent C6H6) was 26000, the “Abs. λmax” value ([4]; solvent DMF) was 589 nm and the “Emission λmax” value ([4]; solvent DMF) was 611 nm. The “Φ (quantum yield of fluorescence)” value ([4]; solvent DMF) was 0.94, the “ε (molar extinction coefficient)” value ([4]; solvent DMF) was “(183000)” and the “ε × F” value ([4]; solvent DMF) was 172000. For the same molecule, the “Abs. λmax” value ([4]; solvent MeOH) was 583 nm, the “Emission λmax” value ([4]; solvent MeOH) was 603 nm and the “Φ (quantum yield of fluorescence)” value ([4]; solvent MeOH) was 0.26. For the same molecule, the “ε (molar extinction coefficient)” value ([4]; solvent MeOH) was “(173000)”, the “ε × F” value ([4]; solvent MeOH) was 45000 and the “Abs. λmax” value ([4]; solvent OcOH) was 590 nm. The “Emission λmax” value ([4]; solvent OcOH) was 609 nm, the “Φ (quantum yield of fluorescence)” value ([4]; solvent OcOH) was 0.99 and the “ε (molar extinction coefficient)” value ([4]; solvent OcOH) was “(180000)”. The “ε × F” value ([4]; solvent OcOH) was 178000.

With CCN1\C(=C/C=C/C=C2/C(=O)c3ccccc3S2(=O)=O)Sc2ccccc21 [dye 2a, (2Z)-2-[(2E,4E)-4-(3-Ethyl-1,3-benzothiazol-2(3H)-ylidene)but-2-enylidene]-1-benzothiophen-3(2H)-one 1,1-Dioxide] the “Absolute rate constant” value ([1]; BuOH) was 5.2 s^−1, the “Absolute rate constant” value ([1]; MeOH) was 3.0 s^−1 and the “Abs. λmax” value ([4]; solvent BuOH) was 604 nm. For the same molecule, the “Emission λmax” value ([4]; solvent BuOH) was 622 nm, the “Φ (quantum yield of fluorescence)” value ([4]; solvent BuOH) was 0.12 and the “ε (molar extinction coefficient)” value ([4]; solvent BuOH) was “(163000)”. For the same molecule, the “ε × F” value ([4]; solvent BuOH) was 20000, the “Abs. λmax” value ([4]; solvent C6H6) was 591 nm and the “Emission λmax” value ([4]; solvent C6H6) was 617 nm. For the same molecule, the “Φ (quantum yield of fluorescence)” value ([4]; solvent C6H6) was 0.16, the “ε (molar extinction coefficient)” value ([4]; solvent C6H6) was “(152000)” and the “ε × F” value ([4]; solvent C6H6) was 24000. For the same molecule, the “Abs. λmax” value ([4]; solvent DMF) was 602 nm, the “Emission λmax” value ([4]; solvent DMF) was 619 nm and the “Φ (quantum yield of fluorescence)” value ([4]; solvent DMF) was 0.22. The “ε (molar extinction coefficient)” value ([4]; solvent DMF) was “(173000)”, the “ε × F” value ([4]; solvent DMF) was 38000 and the “Abs. λmax” value ([4]; solvent MeOH) was 598 nm. The “Emission λmax” value ([4]; solvent MeOH) was 617 nm, the “Φ (quantum yield of fluorescence)” value ([4]; solvent MeOH) was 0.05 and the “ε (molar extinction coefficient)” value ([4]; solvent MeOH) was “(143000)”. The “ε × F” value ([4]; solvent MeOH) was 7000, the “Abs. λmax” value ([4]; solvent OcOH) was 606 nm and the “Emission λmax” value ([4]; solvent OcOH) was 623 nm. The “Φ (quantum yield of fluorescence)” value ([4]; solvent OcOH) was 0.17, the “ε (molar extinction coefficient)” value ([4]; solvent OcOH) was “(168000)” and the “ε × F” value ([4]; solvent OcOH) was 29000.

For CN1C(=O)C(=C/C=C/C=C2/Sc3ccccc3N2CCCS(=O)(=O)[O-])C(=O)N(C)C1=S.[Na+] [dye 1c, Sodium 3-[(2E)-2-[(2E)-4-(1,3-Dimethyl-4,6-dioxo-2-thioxotetrahydro-pyrimidin-5(2H)-ylidene)but-2-enylidene]-1,3-benzothiazol-3(2H)-yl]propane-1-sulfonate], the water solubility ([2]; in words) was “significantly improved”.

With COC(=O)Nc1nc2ccc(C(=O)c3cccs3)cc2[nH]1 [nocodazole] the “effect on peripheral Cdc42 activation” value (Cdc42 activation) was “markedly affected peripheral Cdc42 activation”.

B1: labeled WASP fragment: WASP fragment (residues 201-320, F271C) derivatized with S—SO dye 2e (conjugate)
chain: DIQNPDITSSRYRGLPAPGPSPADKKRSGKKKISKADIGAPSGFKHVSHVGWDPQNGFDVNNLDPDLRSLCSRAGISEAQLTDAETSKLIYDFIEDQGGLEAVRQEMRRQEPLPPPPPPS
modifications: left off: small tags and cut ends
notes: WASP fragment (residues 201-320, F271C) derivatized with S—SO dye 2e
For B1, the “increase in fluorescence intensity” value (Cdc42; incubated with activated Cdc42) was 300%.
